According to patent publication US12371404B2, “Fused bicyclic alkylene linked imidodicarbonimidic diamides, methods for synthesis, and uses in therapy” (NovaTarg, Inc., priority 2016, dated 2025):
Structures can show the parent of a compound that is named as a salt. Where two headings read alike, the source gives them in different places.

Legend:
[1] = biological target: T1, human MATE1 (Homo sapiens, UniProt Q96FL8); assay: Oxygen consumption rate (OCR) assay, HEK293 cells transfected with MATE1
T1 sequence (Q96FL8 1-570): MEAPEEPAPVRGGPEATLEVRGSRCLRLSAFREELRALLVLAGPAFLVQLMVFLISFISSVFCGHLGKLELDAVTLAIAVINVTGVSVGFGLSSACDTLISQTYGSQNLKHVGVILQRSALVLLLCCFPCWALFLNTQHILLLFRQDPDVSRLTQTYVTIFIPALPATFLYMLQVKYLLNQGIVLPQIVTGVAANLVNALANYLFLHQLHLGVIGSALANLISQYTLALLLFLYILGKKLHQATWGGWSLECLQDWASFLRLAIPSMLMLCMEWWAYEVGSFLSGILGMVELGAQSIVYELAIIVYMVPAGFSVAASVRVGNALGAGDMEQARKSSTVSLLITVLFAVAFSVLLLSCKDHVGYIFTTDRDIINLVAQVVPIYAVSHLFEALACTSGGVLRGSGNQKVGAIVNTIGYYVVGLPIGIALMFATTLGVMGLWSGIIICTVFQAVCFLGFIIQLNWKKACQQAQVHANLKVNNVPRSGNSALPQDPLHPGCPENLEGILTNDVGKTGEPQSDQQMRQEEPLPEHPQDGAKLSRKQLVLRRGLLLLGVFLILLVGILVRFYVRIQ

[2] = biological target: T2, human PMAT (Homo sapiens, UniProt Q7RTT9); assay: Oxygen consumption rate (OCR) assay, HEK293 cells transfected with PMAT; assay type: cell-based
T2 construct: expressed in transfected cells; host or cells: HEK293
T2 sequence (Q7RTT9 1-530): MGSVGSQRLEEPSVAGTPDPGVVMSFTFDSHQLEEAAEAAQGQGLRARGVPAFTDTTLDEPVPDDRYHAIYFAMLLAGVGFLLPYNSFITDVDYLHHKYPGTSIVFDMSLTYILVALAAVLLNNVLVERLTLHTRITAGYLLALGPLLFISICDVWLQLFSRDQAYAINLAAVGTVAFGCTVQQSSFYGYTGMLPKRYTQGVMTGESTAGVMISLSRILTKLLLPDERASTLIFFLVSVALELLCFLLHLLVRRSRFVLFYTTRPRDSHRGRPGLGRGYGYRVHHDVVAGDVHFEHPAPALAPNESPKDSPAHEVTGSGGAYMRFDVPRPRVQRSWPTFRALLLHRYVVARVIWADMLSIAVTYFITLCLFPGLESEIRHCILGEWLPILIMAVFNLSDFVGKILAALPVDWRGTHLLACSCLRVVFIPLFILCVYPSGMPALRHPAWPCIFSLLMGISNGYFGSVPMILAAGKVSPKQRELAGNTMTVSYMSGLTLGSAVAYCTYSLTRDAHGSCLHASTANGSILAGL
Source text: (§1) Diabetologia 2011, 54 (12): 3101-3110, each incorporated by reference with regard to such testing. The compounds of the present invention are similarly tested in an oxygen consumption rate (OCR) assay to evaluate the functional activity of test compounds in cells.
(§2) In brief, the assay uses HEK293 cells stably transfected with the human OCT1, OCT2, OCT3, PMAT, or MATE1 transporters to determine a compound's relative transporter selectivity and its effect on the rate of oxygen consumption relative to control (Neo) cells. The MitoXpress Xtra oxygen-sensitive fluorophore is used to monitor oxygen consumption rates in the presence and absence of compound treatments. The analogs were tested at eight (8) different concentrations in triplicate to determine a relative IC50 value.
(§3) A summary description of the protocol is as follows:
(§4) HEK293 cells transformed with human organic cation transporters were plated in collagen coated, 96-well black-walled microclear plates (Greiner-Bio 1, #655956) at 60,000 cells per well in growth medium (DMEM (LG), 10% FBS, 400 μg/ml G418). Cells were incubated overnight to allow attachment. The outer columns (1 and 12) are not seeded with cells, as controls. The next day, plating medium was removed and replaced with 150 μL of assay medium (DMEM/F12 (PRF), 5% FBS, antibiotics) containing compound dilutions. A 3-fold serial dilution was prepared in the assay medium and transferred to the empty wells. The outer columns and column 11 received 150 μL of assay medium only. 10 μL of MitoXpress Xtra reagent was added to each test well, and 100 μL of pre-warmed mineral oil was overlayed in each well to create a seal. Dual read time-resolved fluorescence (BMG FluoStar Galaxy reader) was measured over 2 hours with measurements taken every 2 minutes. Excitation is 340 nm, Emission is 650 nm. For lifetime analysis, two measurements per well were taken: 1) delay of 30 μs, with a window of 30 μs; and 2) delay of 70 μs with a window of 30 μs. Background TRF values from A1-D1 were subtracted from all readings. A ratiometric analysis was performed to determine changes in the Lifetime fluorescence signal:Lifetime (μs) [T]=(D2−D1)/ln(W1/W2), where D is delay; W is fluorescence window value at each time point. Lifetime slopes were calculated using each Lifetime measurement over time. IC50 values were determined by plotting lifetime slope values vs. compound concentration.

[3] = test system: control (Neo) cells; assay: Oxygen consumption rate (OCR) assay, control (Neo) HEK293 cells; assay type: cell-based; settings: Homo sapiens, read-out: Oxygen Consumption Rate (OCR) IC50, Neo
[4] = biological target: T3, human OCT2 (Homo sapiens, UniProt O15244); assay: Oxygen consumption rate (OCR) assay, HEK293 cells transfected with OCT2; settings: HEK293 cells stably transfected with human OCT2; MitoXpress Xtra, 2 hours
T3 sequence (O15244 1-555): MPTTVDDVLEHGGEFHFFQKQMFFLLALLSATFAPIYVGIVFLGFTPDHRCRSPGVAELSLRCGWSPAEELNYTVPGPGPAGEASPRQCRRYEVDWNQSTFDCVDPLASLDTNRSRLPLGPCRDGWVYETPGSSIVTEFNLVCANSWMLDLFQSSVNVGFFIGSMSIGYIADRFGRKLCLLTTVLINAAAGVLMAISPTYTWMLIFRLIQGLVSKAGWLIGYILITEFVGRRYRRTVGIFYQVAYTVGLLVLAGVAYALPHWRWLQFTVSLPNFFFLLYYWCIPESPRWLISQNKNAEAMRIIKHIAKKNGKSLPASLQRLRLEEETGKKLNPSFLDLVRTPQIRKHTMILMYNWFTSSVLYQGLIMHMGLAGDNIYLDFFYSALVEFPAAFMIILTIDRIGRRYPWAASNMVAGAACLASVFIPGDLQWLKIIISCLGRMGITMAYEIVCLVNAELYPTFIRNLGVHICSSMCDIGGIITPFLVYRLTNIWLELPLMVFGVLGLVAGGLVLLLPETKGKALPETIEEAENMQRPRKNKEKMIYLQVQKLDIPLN
Source text: as §1, §2, §3
as §4, with “10 μL of MitoXpress Xtra reagent was added to each test well, and 100 μL of pre-warmed mineral oil was overlayed in each well to create a seal.” left out, “Excitation is 340 nm, Emission is 650 nm. For lifetime analysis, two measurements per well were taken: 1) delay of 30 μs, with a window of 30 μs; and 2) delay of 70 μs with a window of 30 μs.” left out

[5] = NASH, dose up to 1 g twice daily (BID); cited from earlier work
[6] = diabetic patients receiving metformin; cited from earlier work
[7] = diabetic cancer patients taking metformin during neoadjuvant chemotherapy; versus 8% not receiving metformin, P=0.007; cited from earlier work
[8] = T2D patients treated with metformin, retrospective studies; cited from earlier work

Row | SMILES | IC50 [1] [µM] | IC50 [2] [µM] | IC50 ([3]; HEK293, 2 h) [µM] | Oxygen Consumption Rate (OCR) IC50, OCT 2 [4] [µM] | IC50 ([2]; HEK293 cells stably transfected with human PMAT, MitoXpress Xtra, 2 hours, read-out: Oxygen Consumption Rate (OCR) IC50, PMAT) [µM] | IC50 ([3]; control (Neo) HEK293 cells, MitoXpress Xtra, 2 hours) [µM] | patients with improvement in liver pathology and ALT [5] [%] | decrease in breast cancer compared with those on other therapies [6] [%] | pathological complete response rate [7] [%] | reduced cancer burden than patients on other treatments [8] [%]
1 | N=C(N)NC(=N)NCCc1c[nH]c2c(F)cccc12 [Ex 3, 1-[2-(7-fluoro-1H-indol-3-yl)ethyl]imidodicarbonimide diamide] | 20 | 4 | 677 | 7 | – | – | – | – | – | –
2 | N=C(N)NC(=N)NCCc1c[nH]c2cc(F)ccc12 [Ex 11, 1-[2-(6-fluoro-1H-indol-3-yl)ethyl]imidodicarbonimide Diamide Trifluoroacetic Acid Salt] | 57 | 3 | 214 | 12 | – | – | – | – | – | –
3 | N=C(N)NC(=N)NCCc1c[nH]c2cccc(F)c12 [Ex 26, 1-[2-(4-fluoro-1H-indol-3-yl)ethyl]imidodicarbonimide diamide, trifluoroacetic acid salt] | – | 2 | 90 | 2 | – | – | – | – | – | –
4 | CN(C)C(=N)NC(=N)N [Metformin] | – | – | – | – | 288 | > 3000 | 30 | 56 | 24 | ~40
